Read-outs that look alike come from different tables or passages of the source.
Legend:
human ERα [1] = target: T1, human ERα (Homo sapiens, UniProt P03372); assay: Creatine kinase expression (ER/CK) in Ad5-wt-hERα infected HAECT-1 cells; conditions: for ER/CK % E2: efficacy relative to the maximal stimulation observed with E2
T1 sequence (P03372 1-595): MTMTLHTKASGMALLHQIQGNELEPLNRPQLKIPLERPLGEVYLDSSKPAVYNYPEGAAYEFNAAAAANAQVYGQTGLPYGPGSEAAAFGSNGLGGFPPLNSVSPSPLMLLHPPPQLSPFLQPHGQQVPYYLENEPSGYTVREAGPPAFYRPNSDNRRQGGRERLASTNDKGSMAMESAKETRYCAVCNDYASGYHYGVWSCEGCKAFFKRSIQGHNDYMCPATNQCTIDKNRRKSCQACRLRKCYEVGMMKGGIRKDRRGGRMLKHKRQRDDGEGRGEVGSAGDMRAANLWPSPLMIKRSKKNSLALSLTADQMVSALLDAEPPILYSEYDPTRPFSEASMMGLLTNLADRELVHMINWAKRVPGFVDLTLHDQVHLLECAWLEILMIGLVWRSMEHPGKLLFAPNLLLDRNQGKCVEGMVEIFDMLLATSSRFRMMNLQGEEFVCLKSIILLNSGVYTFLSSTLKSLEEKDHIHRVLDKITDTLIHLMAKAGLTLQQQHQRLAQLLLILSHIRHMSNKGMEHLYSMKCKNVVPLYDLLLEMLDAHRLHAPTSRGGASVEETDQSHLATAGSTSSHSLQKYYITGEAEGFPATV

human ERα [2] = target: T1, human ERα; assay: NF-κB luciferase reporter (ER/NF-KB-luc) in Ad5-wt-hERα infected HAECT-1 cells; conditions: for IC50: ER/NF-KB-luc IC50, Ad5-wt-ER infected HAECT-1 cells, IL-1β; for Emax: HAECT1, read-out: ER/NF-KB-luc % E2, efficacy relative to the maximal inhibition observed with E2

Row | Compound | EC50 (human ERα [1]) | ER/CK % E2 (human ERα [1]) | IC50 (human ERα [2]) | Emax (human ERα [2]) | EC50 (human ERα [1]; read-out: ER/CK EC50, Ad5-wt-ER infected HAECT-1 cells)
1 | 4-[1-isopropyl-7-(2-methylphenyl)-1H-indazol-3-yl]-3-methyl-phenol [Example 256] | – | – | – | – | 292 nM
2 | Cc1cccc(-n2nc(-c3ccc(O)cc3O)c3ccc(O)cc32)c1 [Example 23, 4-[6-hydroxy-1-(3-methylphenyl)-1H-indazol-3-yl]benzene-1,3-diol] | 72 nM | 55 % E2 | 239 nM | 76% | –
3 | Oc1ccc(-c2nn(Cc3ccccc3)c3c(C(F)(F)F)cccc23)c(O)c1 [Example 143, 4-[1-benzyl-7-(trifluoromethyl)-1H-indazol-3-yl]benzene-1,3-diol] | – | – | 310 nM | 65% | –
4 | Oc1ccc(-c2nn(Cc3ccccc3)c3c(C(F)(F)F)cccc23)cc1 [Example 147, 4-[1-benzyl-7-(trifluoromethyl)-1H-indazol-3-yl]phenol] | – | – | – | 65% | –
5 | Oc1ccc(-c2nn(Cc3ccccc3)c3c(F)cccc23)c(O)c1 [Example 151, 4-(1-benzyl-7-fluoro-1H-indazol-3-yl)benzene-1,3-diol] | – | – | 1060 nM | 81% | –
6 | OCCn1nc(-c2ccc(O)cc2)c2cccc(C(F)(F)F)c21 [Example 162, 4-[1-(2-hydroxyethyl)-7-(trifluoromethyl)-1H-indazol-3-yl]phenol] | – | – | – | 84% | –
7 | CCCCn1nc(-c2ccc(O)cc2)c2cccc(C(F)(F)F)c21 [Example 219, 4-[1-butyl-7-(trifluoromethyl)-1H-indazol-3-yl]phenol] | – | – | 369 nM | 104% | –
8 | CC(C)n1nc(-c2ccc(O)cc2)c2cccc(-c3ccc(CO)cc3)c21 [Example 230, 4-{7-[4-(hydroxymethyl)phenyl]-1-isopropyl-1H-indazol-3-yl}-phenol] | – | – | 367 nM | 82% | –
9 | CCc1ccc(-c2cccc3c(-c4ccc(O)cc4)nn(C(C)C)c23)cc1 [Example 232, 4-[7-(4-ethylphenyl)-1-isopropyl-1H-indazol-3-yl]phenol] | – | – | 143 nM | 75% | –
10 | Oc1ccc(-c2nn(C3CCCC3)c3c(-c4ccc(C(F)(F)F)cc4)cccc23)cc1 [Example 237, 4-{1-cyclopentyl-7-[4-(trifluoromethyl)phenyl]-1H-indazol-3-yl}-phenol] | – | – | 480 nM | 79% | –
11 | Oc1ccc(-c2nn(C3CCCC3)c3c(-c4ccccc4Cl)cccc23)cc1 [Example 243, 4-[7-(2-chlorophenyl)-1-cyclopentyl-1H-indazol-3-yl]phenol] | – | – | 142 nM | 83% | –
12 | CCCCC/C=C/c1cccc2c(-c3ccc(O)cc3C)nn(C(C)C)c12 [Example 248, 4-{7-[(E)-hept-1-enyl]-1-isopropyl-1H-indazol-3-yl}-3-methyl-phenol] | – | – | 481 nM | 73% | –
13 | Cc1cc(O)ccc1-c1nn(C(C)C)c2c(-c3ccc(O)c(O)c3)cccc12 [Example 250, 4-[3-(4-hydroxy-2-methylphenyl)-1-isopropyl-1H-indazol-7-yl]-benzene-1,2-diol] | – | – | – | 80% | –
14 | CCCCC/C=C/c1cccc2c(-c3ccc(O)cc3C)nn(C3CCCC3)c12 [Example 258, 4-{1-cyclopentyl-7-[(E)-hept-1-enyl]-1H-indazol-3-yl}-3-methyl-phenol] | – | – | 644 nM | 77% | –
15 | Cc1cc(O)ccc1-c1nn(C2CCCC2)c2c(-c3ccc(-c4ccccc4)cc3)cccc12 [Example 261, 4-[7-(1,1′-biphenyl-4-yl)-1-cyclopentyl-1H-indazol-3-yl]-3-methyl-phenol] | – | – | 98 nM | 42% | –

More lines, main results first:

Row | EC50 (human ERα [1]) | ER/CK % E2 (human ERα [1]) | IC50 (human ERα [2]) | Emax (human ERα [2]) | Compound | EC50 (human ERα [1]; read-out: ER/CK EC50, Ad5-wt-ER infected HAECT-1 cells)
16 | 51 nM | 34 % E2 | 37 nM | 92% | Oc1ccc(-c2nn(C3CCCCC3)c3c(F)cccc23)cc1 [Example 33, 4-(1-cyclohexyl-7-fluoro-1H-indazol-3-yl)phenol] | –
17 | 137 nM | 87 % E2 | 66 nM | 115% | Cc1cccc2c(-c3ccc(O)cc3)n[nH]c12 [Example 34, 4-(7-methyl-1H-indazol-3-yl) phenol] | –
18 | – | – | 75 nM | 83% | CSc1ccc(-c2cccc3c(-c4ccc(O)cc4)nn(C(C)C)c23)cc1 [Example 228, 4-{1-isopropyl-7-[4-(methylthio)phenyl]-1H-indazol-3-yl}phenol] | –
19 | – | – | 87 nM | 81% | CC(C)n1nc(-c2ccc(O)cc2)c2cccc(-c3ccc(-c4ccccc4)cc3)c21 [Example 233, 4-[7-(1,1′-biphenyl-4-yl)-1-isopropyl-1H-indazol-3-yl]phenol] | –
20 | – | – | 34 nM | 72% | CC(C)n1nc(-c2ccc(O)cc2)c2cccc(-c3ccccc3Cl)c21 [Example 234, 4-[7-(2-chlorophenyl)-1-isopropyl-1H-indazol-3-yl]phenol] | –
21 | – | – | 11 nM | 74% | Oc1ccc(-c2nn(C3CCCC3)c3c(-c4cccs4)cccc23)cc1 [Example 238, 4-(1-cyclopentyl-7-thien-2-yl-1H-indazol-3-yl)phenol] | –
22 | – | – | 32 nM | 60% | CCc1ccc(-c2cccc3c(-c4ccc(O)cc4)nn(C4CCCC4)c23)cc1 [Example 241, 4-[1-cyclopentyl-7-(4-ethylphenyl)-1H-indazol-3-yl]phenol] | –
23 | – | – | 16 nM | 70% | Cc1ccccc1-c1cccc2c(-c3ccc(O)cc3)nn(C3CCCC3)c12 [Example 245, 4-[1-cyclopentyl-7-(2-methylphenyl)-1H-indazol-3-yl]phenol] | –
24 | – | – | 59 nM | 59% | Cc1cc(O)ccc1-c1nn(C(C)C)c2c(-c3ccc(CO)cc3)cccc12 [Example 249, 4-{7-[14-(hydroxymethyl)phenyl]-1-isopropyl-1H-indazol-3-yl}-3-methylphenol] | –
25 | – | – | 24 nM | 57% | CCc1ccc(-c2cccc3c(-c4ccc(O)cc4C)nn(C(C)C)c23)cc1 [Example 251, 4-[7-(4-ethylphenyl)-1-isopropyl-1H-indazol-3-yl]-3-methylphenol] | –
26 | – | – | 56 nM | 59% | Cc1cc(O)ccc1-c1nn(C(C)C)c2c(-c3ccc(-c4ccccc4)cc3)cccc12 [Example 252, 4-[7-(1,1′-biphenyl-4-yl)-1-isopropyl-1H-indazol-3-yl]-3-methyl-phenol] | –
27 | – | – | 21 nM | 62% | Cc1cc(O)ccc1-c1nn(C(C)C)c2c(-c3ccccc3Cl)cccc12 [Example 253, 4-[7-(2-chlorophenyl)-1-isopropyl-1H-indazol-3-yl]-3-methyl-phenol] | –
28 | – | – | 27 nM | 56% | Cc1cc(O)ccc1-c1nn(C(C)C)c2c(-c3ccco3)cccc12 [Example 254, 4-[7-(2-furyl)-1-isopropyl-1H-indazol-3-yl]-3-methylphenol] | –
29 | – | – | 4 nM | 89% | Cc1cc(O)ccc1-c1nn(C(C)C)c2c(-c3ccccc3C)cccc12 [Example 255, 4-[1-isopropyl-7-(2-methylphenyl)-1H-indazol-3-yl]-3-methyl-phenol] | –
30 | – | – | 28 nM | 53% | CCc1ccc(-c2cccc3c(-c4ccc(O)cc4C)nn(C4CCCC4)c23)cc1 [Example 260, 4-[1-cyclopentyl-7-(4-ethylphenyl)-1H-indazol-3-yl]-3-methyl-phenol] | –
31 | – | – | 8 nM | 75% | Cc1cc(O)ccc1-c1nn(C2CCCC2)c2c(-c3ccccc3Cl)cccc12 [Example 262, 4-[7-(2-chlorophenyl)-1-cyclopentyl-1H-indazol-3-yl]-3-methyl-phenol] | –

Source: patent US7241791B2, “Substituted 4-(indazol-3-yl)phenols” (Wyeth, priority 2002, dated 2007)
